Reference: patent US20050164983A1, “Carboxyl-reduced derivatives of dermatan sulfate, preparation thereof, use thereof as a medicinal product and the pharmaceutical compositions containing them” (Aventis Pharma S.A., priority 2003, published 2005)

Columns and labels:
[1] = biological target: T1, human neutrophil elastase (Homo sapiens, UniProt P08246); assay: Inhibitory activity on human neutrophil elastase; assay type: biochemical; settings: 15 min incubation
T1 construct: purchased Sigma E8140
T1 sequence (P08246 30-267): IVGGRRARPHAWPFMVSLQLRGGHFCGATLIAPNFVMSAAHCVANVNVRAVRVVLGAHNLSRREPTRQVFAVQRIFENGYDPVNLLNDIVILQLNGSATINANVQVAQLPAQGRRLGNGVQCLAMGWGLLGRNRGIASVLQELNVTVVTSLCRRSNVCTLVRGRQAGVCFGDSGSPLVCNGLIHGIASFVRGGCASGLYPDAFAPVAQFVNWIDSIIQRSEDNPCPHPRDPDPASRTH
Method: Effects of the Carboxyl-reduced Derivatives According to the Invention on Human Neutrophil Elastase
A commercially available enzyme (for example, human neutrophil elastase, Sigma No. E8140) is reconstituted in aliquots of 0.1 mg per vial with 0.276 ml of 50 mM sodium acetate buffer, pH 5.5, containing 200 mM NaCl (stock solution of the enzyme); 11 μl of this stock solution are diluted with 1.1 ml of the above HEPES buffer (enzyme assay solution).
The substrate solution is prepared by dissolving 118 mg of methoxy-succinyl-L-Ala-L-Ala-L-Pro-L-Val-p-nitro-anilide in 1 ml of DMSO (stock solution, for example Sigma No. M4765). In view of the application in the analysis, 9 μl of stock solution are then diluted in 1.19 ml of H2O.
Serial dilutions of the assay compounds are prepared in 100 mM of HEPES buffer containing 500 mM of NaCl. The analysis is carried out on colorless 96-well polystyrene microplates (for example, Corning Costar, No. 3695.
10 μl of enzyme assay solution are mixed with 10 μl of the respective solution of diluted compound and 10 μl of the substrate solution. After incubation for 15 min, the cleavage of the substrate is read as increase in absorbance at 405 nm.

[2] = biological target: T2, bovine factor Xa (Bos taurus, UniProt P00743); assay: Inhibition of factor Xa (chromogenic substrate S-2765, with human antithrombin III); assay type: biochemical; settings: calibrated against Enoxaparin
Method: For the calibration, a standard sample of low molecular weight heparin (Enoxaparin) was used as reference.
The serial dilutions of the assay compound are prepared in a 0.046 M Tris buffer, pH 8.4, containing 0.15 M NaCl, 0.007 M EDTA, 0.1% of Tween 80 and 0.12 IU/ml of human antithrombin III. The samples of 50 μl of the respective dilutions are incubated with 50 μl of bovine factor Xa (13.6 U/ml) at 37° C. for 80 seconds. Next, 50 μl of chromogenic substrate, 1.1 mM S-2765, are added. The absorbance at 405 nm is measured in a photometer. The activity of the deblocked factor Xa is indicated by the emission of p-nitroaniline from the substrate.

[3] = biological target: aggrecanase; assay: Effect on the aggrecanase in synovial fluids or on preparations of recombinant ADAMTS protein (Agg1mut substrate, BC-3 ELISA); assay type: biochemical; settings: for Estimated IC50: aggrecanase, substrate conversion
Method: Effect of the carboxyl-reduced derivatives according to the invention on the aggrecanase in synovial fluids or on preparations of recombinant ADAMTS protein.
The analysis is carried out on 96-well plates. Before the analysis, serial dilutions of the assay compounds are prepared in an aqueous solution.
In each well, a fixed volume of synovial fluid or aggrecanase activity generating a known increase, between 1.0 and 1.4 absorbance units (405 nm), under the conditions of the analysis, is mixed with 3 μl of solution of compound from the respective dilution step. Dulbecco's modified Eagle's medium (DMEM) is added to each well to give a final volume of 300 μl. The plate is then incubated for 1 hour at 37° C. in a carbon dioxide atmosphere.
Preparation of the analytical plate:
In a first step, the microplate is coated with 100 μl per well of a commercial goat anti-mouse IgG antibody for 1 hour at ambient temperature (5 μg/ml in a phosphate buffered saline solution, pH 7.4 [PBS buffer]). After washing with the PBS buffer containing 0.1% of Tween-20 (washing buffer), the wells are blocked by means of a step consisting of a one hour incubation with 100 μl per well of 5% bovine serum albumin in a PBS buffer containing 0.05% of Tween-20.
After another rinse of the analytical plate with the washing buffer, the complete set of mixtures originating from the preceding digestion is transferred to this plate, well by well, and incubated at ambient temperature for one hour. The plate is again washed as above. Next, 100 μl of the second antibody (anti-human IgG antibody labeled with peroxidase, 1:1000 in PBS containing 0.5% of BSA and 0.05% of Tween-20) are added to each well, with subsequent incubation at ambient temperature again for one hour. […] The measurement is carried out by means of the screen mode using detection at 405 nm relative to a reference filter (620 nm) with automatic readings at 5-second intervals. The development is stopped as soon as the maximum signal (405 nm) in the absorbance range of 1.0 to 1.4 is reached.

[4] = biological target: T2, bovine factor Xa; settings: reference low-molecular weight heparin used for calibration; cited from earlier work
[5] = conc. of glycosaminoglycan 0.0001 μg/ml
[6] = conc. of glycosaminoglycan 0.001 μg/ml
[7] = conc. of glycosaminoglycan 0.01 μg/ml
[8] = conc. of glycosaminoglycan 0.1 μg/ml

T2 sequence (P01008 33-464 partner): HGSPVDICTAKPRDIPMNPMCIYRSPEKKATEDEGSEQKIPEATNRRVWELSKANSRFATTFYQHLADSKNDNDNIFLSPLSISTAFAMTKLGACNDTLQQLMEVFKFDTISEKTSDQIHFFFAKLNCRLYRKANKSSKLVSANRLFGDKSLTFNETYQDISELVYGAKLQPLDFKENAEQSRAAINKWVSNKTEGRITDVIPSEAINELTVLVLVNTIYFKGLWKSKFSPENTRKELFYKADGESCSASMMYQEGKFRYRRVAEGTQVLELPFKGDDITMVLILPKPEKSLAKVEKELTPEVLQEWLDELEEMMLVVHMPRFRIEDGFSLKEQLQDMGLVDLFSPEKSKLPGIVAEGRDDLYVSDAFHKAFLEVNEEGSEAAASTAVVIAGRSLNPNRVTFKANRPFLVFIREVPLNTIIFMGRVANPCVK
T2 sequence (P00743 234-492 limits assumed): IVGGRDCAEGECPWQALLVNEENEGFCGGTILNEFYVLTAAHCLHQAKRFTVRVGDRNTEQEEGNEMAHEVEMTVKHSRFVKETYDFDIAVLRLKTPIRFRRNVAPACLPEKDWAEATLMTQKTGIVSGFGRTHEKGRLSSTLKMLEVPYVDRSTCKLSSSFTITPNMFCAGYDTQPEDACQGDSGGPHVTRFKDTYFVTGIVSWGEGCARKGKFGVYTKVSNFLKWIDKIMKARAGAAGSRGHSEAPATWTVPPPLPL

Substance	IC50 [1]	Anti-factor Xa activity [2]	Estimated IC50 [3]	% Conversion [3, 5]	% Conversion [3, 6]	% Conversion [3, 7]	% Conversion [3, 8]	% Conversion ([3]; conc. of glycosaminoglycan 1.0 μg/ml)	Anti-factor Xa activity of the reference standard [4]
6-O-sulfated, Carboxyl-reduced Dermatan Sulfate Sodium Salt [Example 5]	10.0 µg/mL	0 U/mg	0.26 µg/mL	100.0%	96.4%	84.3%	70.2%	36.1%	–
Carboxyl-reduced Dermatan Sulfate Sodium Salt [Example 1]	–	–	~7.9 µg/mL	–	–	–	–	–	–
Enoxaparin	–	–	–	–	–	–	–	–	100 U/mg
Persulfated, Carboxyl-reduced Dermatan Sulfate Sodium Salt [Example 4]	0.11 µg/mL	1.1 U/mg	0.007 µg/mL	100.0%	93.4%	27.4%	18.0%	–	–
